≈ marks a conversion by molar mass, not a printed value. Calls of active or inactive are those of the source. The calls are words filed in the database; no cut-off is given here.
Key:
[1] = molecular target: Stromelysin-1 (Homo sapiens) (UniProt P08254); assay: Inhibition of MMP-3 catalytic activity (unknown origin)
[2] = molecular target: Matrix metalloproteinase-9 (Homo sapiens, UniProt P14780); assay: Inhibition of proMMP-9 (unknown origin)
[3] = Solubility of compound; assay type: physicochemical
Collagenase 3 = Collagenase 3 (Homo sapiens, UniProt P45452); assay: Inhibition of proMMP-13 (unknown origin)
[4] = molecular target: 72 kDa type IV collagenase (Homo sapiens, UniProt P08253); assay: Inhibition of proMMP-2 (unknown origin)
Chain of 72 kDa type IV collagenase (P08253 whole entry): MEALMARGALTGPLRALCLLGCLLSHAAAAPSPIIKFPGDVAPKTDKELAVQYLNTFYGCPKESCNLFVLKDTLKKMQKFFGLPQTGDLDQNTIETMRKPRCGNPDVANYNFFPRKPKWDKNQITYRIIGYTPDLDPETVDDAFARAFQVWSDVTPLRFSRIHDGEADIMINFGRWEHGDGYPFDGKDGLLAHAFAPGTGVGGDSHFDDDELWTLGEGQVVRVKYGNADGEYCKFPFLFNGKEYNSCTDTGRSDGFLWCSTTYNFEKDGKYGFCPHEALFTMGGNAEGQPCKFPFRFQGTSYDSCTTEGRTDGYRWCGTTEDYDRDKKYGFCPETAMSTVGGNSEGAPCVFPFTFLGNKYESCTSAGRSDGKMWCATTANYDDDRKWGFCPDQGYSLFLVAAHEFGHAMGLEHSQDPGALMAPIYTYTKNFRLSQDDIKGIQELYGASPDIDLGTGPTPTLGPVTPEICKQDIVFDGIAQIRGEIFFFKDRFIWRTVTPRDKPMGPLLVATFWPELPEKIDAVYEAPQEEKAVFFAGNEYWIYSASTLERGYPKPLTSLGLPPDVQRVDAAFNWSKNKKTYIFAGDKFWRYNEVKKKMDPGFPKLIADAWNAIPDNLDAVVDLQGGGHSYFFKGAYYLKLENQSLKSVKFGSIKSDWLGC

Chain of Matrix metalloproteinase-9 (P14780 whole entry): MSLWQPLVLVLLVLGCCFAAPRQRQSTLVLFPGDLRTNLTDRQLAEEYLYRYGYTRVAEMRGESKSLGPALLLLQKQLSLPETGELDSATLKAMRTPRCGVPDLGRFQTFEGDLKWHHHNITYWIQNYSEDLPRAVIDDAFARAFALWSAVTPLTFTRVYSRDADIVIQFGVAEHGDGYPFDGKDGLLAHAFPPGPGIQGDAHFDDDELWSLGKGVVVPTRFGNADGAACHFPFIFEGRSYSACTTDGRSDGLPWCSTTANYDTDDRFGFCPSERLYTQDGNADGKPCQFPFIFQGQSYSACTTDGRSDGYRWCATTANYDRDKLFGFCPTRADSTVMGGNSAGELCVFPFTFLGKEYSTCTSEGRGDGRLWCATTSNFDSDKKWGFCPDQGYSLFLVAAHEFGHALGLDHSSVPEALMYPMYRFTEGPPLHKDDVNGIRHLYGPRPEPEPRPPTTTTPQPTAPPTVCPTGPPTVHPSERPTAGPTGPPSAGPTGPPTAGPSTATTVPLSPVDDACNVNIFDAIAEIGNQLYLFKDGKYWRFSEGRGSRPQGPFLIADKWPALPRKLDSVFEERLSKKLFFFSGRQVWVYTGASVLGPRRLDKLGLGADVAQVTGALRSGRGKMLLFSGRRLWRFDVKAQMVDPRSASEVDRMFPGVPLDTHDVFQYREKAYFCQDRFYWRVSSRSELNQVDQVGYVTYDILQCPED
Chain of Stromelysin-1 (Homo sapiens) (P08254 100-477 limits assumed): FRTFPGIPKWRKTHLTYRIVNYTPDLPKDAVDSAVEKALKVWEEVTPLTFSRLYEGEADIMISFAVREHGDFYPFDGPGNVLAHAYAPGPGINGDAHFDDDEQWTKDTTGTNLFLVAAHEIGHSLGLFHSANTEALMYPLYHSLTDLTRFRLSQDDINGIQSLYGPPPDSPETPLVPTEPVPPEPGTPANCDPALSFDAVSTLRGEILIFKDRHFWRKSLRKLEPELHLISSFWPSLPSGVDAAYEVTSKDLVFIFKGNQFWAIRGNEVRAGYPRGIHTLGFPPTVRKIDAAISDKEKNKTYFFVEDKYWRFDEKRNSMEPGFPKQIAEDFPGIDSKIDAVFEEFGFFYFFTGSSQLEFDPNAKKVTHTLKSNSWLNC

inhibition [1] | IC50 [2] | solubility [3] | IC50 (Collagenase 3) | IC50 [4] | SMILES
inactive | 8.5 µM |  |  |  | CCc1cccc2c(C(=O)N3CCc4ocnc4C3)n[nH]c12
 | 0.58 µM | > 35 µg/mL |  |  | CC(C)(O)c1ccc2cc(C(=O)N3CCCc4cnccc4C3)[nH]c2c1
 | 1.1 µM |  |  |  | O=C(c1cc2ccc(C3CC3)cc2[nH]1)N1CCc2ocnc2C1
inactive | 2.6 µM |  |  |  | CNc1cc(F)cc2cc(C(=O)N3CCc4ccc(C(=O)NCCN5CCCC5)cc4C3)[nH]c12
 | > 50 µM |  |  |  | O=C(c1cc2ccc(C3CC3)cc2[nH]1)N1CCc2cnccc2C1
 | 0.081 µM | 8.6 µg/mL (≈ 25.9 µM) |  |  | O=C(c1cc2ccc(C3CC3)cc2[nH]1)N1CCCc2cnccc2C1
 | > 50 µM |  |  |  | O=C(c1cc2ccc(C3CC3)cc2[nH]1)N1CCc2ccccc2C1
 | 1 µM |  |  |  | O=C(NCCN1CCCC1)c1ccc2c(c1)CN(C(=O)c1cc3c(F)cc(C4CC4)cc3[nH]1)CC2
 | 0.12 µM | 0.8 µg/mL (≈ 2.5 µM) |  |  | CCc1ccc2cc(C(=O)N3CCCc4cnccc4C3)[nH]c2c1
 | 1.1 µM | > 33 µg/mL |  |  | O=C(c1cc2ccc(CCO)cc2[nH]1)N1CCCc2cnccc2C1
 | 0.16 µM | 3 µg/mL (≈ 7.99 µM) |  |  | C[C@]1(O)C[C@@H](c2ccc3cc(C(=O)N4CCCc5cnccc5C4)[nH]c3c2)C1
 | 0.11 µM | 1.3 µg/mL (≈ 3.74 µM) |  |  | CC(C)(C)c1ccc2cc(C(=O)N3CCCc4cnccc4C3)[nH]c2c1
 | 0.12 µM | 0.4 µg/mL (≈ 1.16 µM) |  |  | O=C(c1cc2ccc(C3CCC3)cc2[nH]1)N1CCCc2cnccc2C1
 | 0.044 µM |  | > 30 µM | > 30 µM | CC(C)(O)c1ccc2cc(C(=O)N3CCCc4cnc(N)c(F)c4C3)[nH]c2c1

Source: ChEMBL document CHEMBL5584207, “Discovery of novel indole derivatives as potent and selective inhibitors of proMMP-9 activation” (Bioorg Med Chem Lett, 2024)
